Assay results: patent US8629242B2, “Methods of inhibiting calcineurin with ApoE analogs” (Cognosci, Inc., priority 2007, dated 2014)

What was measured:
[1] = tested on: cuprizone-induced demyelination in corpus callosum; assay: Cuprizone-induced demyelination model; type: in vivo, C57BL/6J male mice
Description: FIG. 6. COG 112 promotes remyelination of the corpus callosum in a cuprizone model of demyelination. C57BL/6J male mice were fed with 0.2% cuprizone-containing diet for 5 weeks to induce complete demyelination in the corpus callosum. Starting from week 6, cuprizone was removed and the animals were treated with either vehicle or COG 112 (1 mg/kg) by i.p. injection three times a week for 4 weeks. Myelination in corpus callosum was evaluated on a scale from 0 to 3 after staining brain sections with Luxol Fast Blue (LFB). The data were collected from 4 animals of each group and 2 sections from each animal. A non-parametric Mann-Whitney test was used to compare differences between groups. Panels A and B (100×) are representative pictures of LFB-stained sections from vehicle- and COG 112-treated animals, respectively. Panels C and D (400×) are representative sections labeled with anti-GST-π-FITC antibody (marker for mature oligodendrocytes) from vehicle- and COG 112-treated animals, respectively.
In an EAE model, treatment with COG 112 reduced demyelination in the spinal cord (Example 1). Therefore, we tested the effect of COG peptides on remyelination in a cuprizone-induced demyelination model. C57BL/6J male mice were fed with 0.2% cuprizone-containing mouse chow for 5 weeks to cause demyelination. […]

[2] = tested on: sciatic nerve crush; assay: Sciatic nerve crush model; type: in vivo, C57BL/6J male mice; details: 1 mg/kg i.p. daily
Description: FIG. 13. COG 112 attenuates axonal neurodegeneration and promotes functional recovery after sciatic nerve crush. C57BL mice were subjected to sciatic nerve crush on left hindlimb using a number 5 jeweler's forceps. The animals received lactated Ringer's buffer or COG 112 (1 mg/kg) by i.p. 2 hr after crush followed by daily dose for 14 days. (A) To assess functional deficits after nerve crush, footprints were recorded and the Sciatic Functional Index (SFI) was calculated. […] Treatment with COG 112 also robustly augmented the mRNA expression of peripheral myelin marker P0 (B) and axonal regeneration marker GAP43 (C) quantified by real-time PCR. **P<0.01; P<0.001. (D) On day 4 after injury, the sciatic nerves were dissected and stained with FD NeuroSilver kit to reveal degenerating axons manifested as dotted lines as depicted in the schematic above the micrographs.
We used a sciatic nerve crush model to investigate whether ApoE analogs can prevent functional loss and/or promote functional recovery after nerve injury. C57BL/6J male mice were anesthetized and the sciatic nerve on left hindlimb was crushed with Number 5 Jeweler's forceps at mid-thigh level for 30 seconds. The animals were then randomly assigned to receive either COG 112 (1 mg/kg, i.p.) or lactated Ringer's buffer two hours after crush followed by daily dose for 14 days. On day 4, two animals from each group were sacrificed and crushed sciatic nerves were dissected and silver stained using a FD NeuroSilver® staining kit to reveal degenerating axons.
On day 7 and 14, footprints for each animal were taken for quantitative assessment of hindlimb motor function. A Sciatic Functional Index (SFI), which takes into account the relationship between toes and feet of an animal's hindlimb, was calculated for each animal as previously described (Bain et al. (1989) Plast. Reconstr. Surg., Vol. 83(1):129-38). SFI values of zero and […] indicate normal and complete dysfunction, respectively.
In order to examine the effect of COG 112 on remyelination and regeneration of axons, segments of sciatic nerves spanning the crushed sites were dissected and collected on day 3, 7 and 14 for examination of P0, a marker of peripheral myelination, and growth associated protein 43 (GAP43), a marker of axonal regeneration, mRNA by real time PCR.

Ac-RQIKIWFQNRRMKWKKCLRVRLASHLRKLRKRLL-NH2 [COG 112]
LFB staining of myelin within corpus callosum ([1]; 1 mg/kg i.p. three times a week for 4 weeks after 5 weeks cuprizone): significantly increased
GST-π+ cells (mature oligodendrocytes) within the corpus callosum ([1]; 1 mg/kg i.p. three times a week for 4 weeks, vs vehicle): Significantly more
expression of GAP43 mRNA (real time PCR) ([2]; 2 weeks): robustly increased
expression of P0 mRNA (real time PCR) ([2]; 2 weeks): robustly increased
functional recovery (Sciatic Functional Index) ([2]; 2 weeks, vs vehicle, P<0.001): significantly improved functional recovery
axonal degeneration (silver staining) ([2]; day 4): significantly reduced axonal degeneration
